Test results from US10058419B2, “Oxidation resistant bioprosthetic tissues and preparation thereof” (The Children's Hospital of Philadelphia, priority 2011, dated 2018).

Tested on: ROS activity
Experiment: Dihydrorhodamine-123 (DHR123) fluorescence measure of oxidation due to ROS, with H2O2 as oxidant
Details: DBP titrated in solution against H2O2 in the presence of DHR123 (FIG. 5)
Source text: The ability of DBP to inhibit ROS activity was verified both in solution and when bound to glut-pretreated pericardium, as described above, by monitoring the fluorescence of dihydrorhodamine-123 (DHR123; Molecular Probes Inc., Eugene Oreg.), which is a commonly used measure of oxidation due to ROS. Briefly, the capacity of DBP to reduce ROS activity was proven in this system by titrating DBP in solution against the oxidant hydrogen peroxide (H2O2) in the presence of DHR123.

Structure (SMILES): CC(C)(C)c1cc(CCCN)cc(C(C)(C)C)c1O.Cl [DBP, 4-hydroxy-3,5-di-tert-butylphenylpropylamine hydrochloride]
- oxidation signal (DHR123 fluorescence): dose-dependent inhibition of oxidation signal
